# Test results as given in PMC7181660, “A novel specific PERK activator reduces toxicity and extends survival in Huntington's disease models” (Scientific Reports, 2020).
# Read-outs that look alike come from different tables or passages of the source.
# What was measured:
# Assay in all cases: biochemical
# Type in all cases: biochemical
# panel of 391 kinases [1] = target: panel of 391 kinases (Homo sapiens, UniProt Q13188); conditions: MST2/STK3, MK-28 1 µM, ATP 1 µM
# panel of 391 kinases [2] = target: panel of 391 kinases (Homo sapiens, UniProt P35916); conditions: FLT4/VEGFR3, MK-28 1 µM, ATP 1 µM
# panel of 391 kinases [3] = target: panel of 391 kinases (Homo sapiens, UniProt Q04771); conditions: ALK2/ACVR1, MK-28 1 µM, ATP 1 µM
# panel of 391 kinases [4] = target: panel of 391 kinases (Homo sapiens, UniProt O00418); conditions: kinase EEF2K, compound at 1 µM, single dose in duplicates, 1 µM ATP
# panel of 391 kinases [5] = target: panel of 391 kinases (Homo sapiens, UniProt P36507); conditions: MEK2, MK-28 1 µM, ATP 1 µM
# panel of 391 kinases [6] = target: panel of 391 kinases (Homo sapiens, UniProt Q9BUB5); conditions: MNK1, MK-28 1 µM, ATP 1 µM
# panel of 391 kinases [7] = target: panel of 391 kinases (Homo sapiens, UniProt P54753); conditions: EPHB3, MK-28 1 µM, ATP 1 µM
# panel of 391 kinases [8] = target: panel of 391 kinases (Homo sapiens, UniProt Q6P3R8); conditions: NEK5, MK-28 1 µM, ATP 1 µM
# panel of 391 kinases [9] = target: panel of 391 kinases (Homo sapiens, UniProt P05771); conditions: PKCb1, MK-28 1 µM, ATP 1 µM
# panel of 391 kinases [10] = target: panel of 391 kinases (Homo sapiens, UniProt P06493); conditions: MK-28 1 µM, ATP 1 µM; for remaining activity at 1 µM: read-out: % Enzyme Activity (relative to DMSO controls)
# panel of 391 kinases [11] = target: panel of 391 kinases (Homo sapiens, UniProt Q00536); conditions: CDK16/cyclin Y (PCTAIRE), MK-28 1 µM, ATP 1 µM
# panel of 391 kinases [12] = target: panel of 391 kinases (Homo sapiens, UniProt P21802); conditions: FGFR2, MK-28 1 µM, ATP 1 µM
# panel of 391 kinases [13] = target: panel of 391 kinases (Homo sapiens, UniProt P34947); conditions: GRK5, MK-28 1 µM, ATP 1 µM
# panel of 391 kinases [14] = target: panel of 391 kinases (Homo sapiens, UniProt Q8WXR4); conditions: MYO3b, MK-28 1 µM, ATP 1 µM
# panel of 391 kinases [15] = target: panel of 391 kinases (Homo sapiens, UniProt P07948); conditions: LYN, MK-28 1 µM, ATP 1 µM
# panel of 391 kinases [16] = target: panel of 391 kinases (Homo sapiens, UniProt Q16816); conditions: PHKg1, MK-28 1 µM, ATP 1 µM
# panel of 391 kinases [17] = target: panel of 391 kinases (Homo sapiens, UniProt Q92630); conditions: DYRK2, MK-28 1 µM, ATP 1 µM
# panel of 391 kinases [18] = target: panel of 391 kinases (Homo sapiens, UniProt Q92918); conditions: HPK1/MAP4K1, MK-28 1 µM, ATP 1 µM
# panel of 391 kinases [19] = target: panel of 391 kinases (Homo sapiens, UniProt Q16566); conditions: CAMK4, MK-28 1 µM, ATP 1 µM
# panel of 391 kinases [20] = target: panel of 391 kinases (Homo sapiens, UniProt Q96QT4); conditions: kinase TRPM7/CHAK1, compound at 1 µM, single dose in duplicates, 1 µM ATP
# panel of 391 kinases [21] = target: panel of 391 kinases (Homo sapiens, UniProt O43353); conditions: RIPK2, MK-28 1 µM, ATP 1 µM
# panel of 391 kinases [22] = target: panel of 391 kinases (Homo sapiens, UniProt P30530); conditions: AXL, MK-28 1 µM, ATP 1 µM
# panel of 391 kinases [23] = target: panel of 391 kinases (Homo sapiens, UniProt Q13233); conditions: MEKK1, MK-28 1 µM, ATP 1 µM
# panel of 391 kinases [24] = target: panel of 391 kinases (Homo sapiens, UniProt P29322); conditions: EPHA8, MK-28 1 µM, ATP 1 µM
# panel of 391 kinases [25] = target: panel of 391 kinases (Homo sapiens, UniProt O43781); conditions: DYRK3, MK-28 1 µM, ATP 1 µM
# panel of 391 kinases [26] = target: panel of 391 kinases (Homo sapiens, UniProt P17252); conditions: PKCa, MK-28 1 µM, ATP 1 µM
# [27] = read-out: % Enzyme Activity (relative to DMSO controls)
smiles,measurement,setting,value
CN(/N=C\c1ccc(O)c(O)c1)c1nc(-c2ccccc2)cc(-c2ccccc2)n1 [MK-28],% Enzyme Activity (relative to DMSO controls),panel of 391 kinases [1],100.15%
same,remaining activity at 1 µM,panel of 391 kinases [1]; [27],101%
same,% Enzyme Activity (relative to DMSO controls),panel of 391 kinases [2],92.88%
same,remaining activity at 1 µM,panel of 391 kinases [2]; [27],94.1%
same,% Enzyme Activity (relative to DMSO controls),panel of 391 kinases [3],102.33%
same,remaining activity at 1 µM,panel of 391 kinases [3]; [27],108%
same,% Enzyme Activity (relative to DMSO controls),panel of 391 kinases [4],90.89%
same,remaining activity at 1 µM,panel of 391 kinases [4]; [27],91%
same,% Enzyme Activity (relative to DMSO controls),panel of 391 kinases [5],98.80%
same,remaining activity at 1 µM,panel of 391 kinases [5]; [27],99.9%
same,% Enzyme Activity (relative to DMSO controls),panel of 391 kinases [6],114.65%
same,remaining activity at 1 µM,panel of 391 kinases [6]; [27],116%
same,% Enzyme Activity (relative to DMSO controls),panel of 391 kinases [7],97.56%
same,remaining activity at 1 µM,panel of 391 kinases [7]; [27],99.2%
same,% Enzyme Activity (relative to DMSO controls),panel of 391 kinases [8],79.32%
same,remaining activity at 1 µM,panel of 391 kinases [8]; [27],81.8%
same,% Enzyme Activity (relative to DMSO controls),panel of 391 kinases [9],108.67%
same,remaining activity at 1 µM,panel of 391 kinases [9]; [27],111%
same,% Enzyme Activity (relative to DMSO controls),panel of 391 kinases [10]; CDK1/cyclin A,104.81%
same,remaining activity at 1 µM,panel of 391 kinases [10]; CDK1/cyclin A,105%
same,% Enzyme Activity (relative to DMSO controls),panel of 391 kinases [10]; CDK1/cyclin B,94.54%
same,remaining activity at 1 µM,panel of 391 kinases [10]; CDK1/cyclin B,95%
same,% Enzyme Activity (relative to DMSO controls),panel of 391 kinases [10]; CDK1/cyclin E,97.74%
same,remaining activity at 1 µM,panel of 391 kinases [10]; CDK1/cyclin E,97.8%
same,% Enzyme Activity (relative to DMSO controls),panel of 391 kinases [11],113.27%
same,remaining activity at 1 µM,panel of 391 kinases [11]; [27],119%
same,% Enzyme Activity (relative to DMSO controls),panel of 391 kinases [12],102.46%
same,remaining activity at 1 µM,panel of 391 kinases [12]; [27],103%
same,% Enzyme Activity (relative to DMSO controls),panel of 391 kinases [13],103.49%
same,remaining activity at 1 µM,panel of 391 kinases [13]; [27],104%
same,% Enzyme Activity (relative to DMSO controls),panel of 391 kinases [14],107.45%
same,remaining activity at 1 µM,panel of 391 kinases [14]; [27],113%
same,% Enzyme Activity (relative to DMSO controls),panel of 391 kinases [15],96.29%
same,remaining activity at 1 µM,panel of 391 kinases [15]; [27],96.5%
same,% Enzyme Activity (relative to DMSO controls),panel of 391 kinases [16],89.19%
same,remaining activity at 1 µM,panel of 391 kinases [16]; [27],90.7%
same,% Enzyme Activity (relative to DMSO controls),panel of 391 kinases [17],100.55%
same,remaining activity at 1 µM,panel of 391 kinases [17]; [27],101%
same,% Enzyme Activity (relative to DMSO controls),panel of 391 kinases [18],114.23%
same,remaining activity at 1 µM,panel of 391 kinases [18]; [27],117%
same,% Enzyme Activity (relative to DMSO controls),panel of 391 kinases [19],99.67%
same,remaining activity at 1 µM,panel of 391 kinases [19]; [27],101%
same,% Enzyme Activity (relative to DMSO controls),panel of 391 kinases [20],102.70%
same,remaining activity at 1 µM,panel of 391 kinases [20]; [27],104%
same,% Enzyme Activity (relative to DMSO controls),panel of 391 kinases [21],100.79%
same,remaining activity at 1 µM,panel of 391 kinases [21]; [27],102%
same,% Enzyme Activity (relative to DMSO controls),panel of 391 kinases [22],98.72%
same,remaining activity at 1 µM,panel of 391 kinases [22]; [27],99.5%
same,% Enzyme Activity (relative to DMSO controls),panel of 391 kinases [23],92.45%
same,remaining activity at 1 µM,panel of 391 kinases [23]; [27],95.1%
same,% Enzyme Activity (relative to DMSO controls),panel of 391 kinases [24],98.42%
same,remaining activity at 1 µM,panel of 391 kinases [24]; [27],98.7%
same,% Enzyme Activity (relative to DMSO controls),panel of 391 kinases [25],96.41%
same,remaining activity at 1 µM,panel of 391 kinases [25]; [27],97.5%
same,% Enzyme Activity (relative to DMSO controls),panel of 391 kinases [26],89.76%
same,remaining activity at 1 µM,panel of 391 kinases [26]; [27],92.7%
